Test results published in patent publication US20250163104A1, “MACROCYCLIC IMMUNOMODULATORS” (priority 2021, published 2025).
Where a SMILES comes first, the peptide text is derived from it. Bridges are numbered along the chain shown (N, C = ends). [ ]: non-standard residue; d: D form. The star is where a group is joined. Bip = N[C@@H](Cc1ccc(-c2ccccc2)cc1)C(=O)O; Phe(4-CN) = N#Cc1ccc(C[C@H](N)C(=O)O)cc1; 4Pal = N[C@@H](Cc1ccncc1)C(=O)O; 2Thi = N[C@@H](Cc1cccs1)C(=O)O; Cha = N[C@@H](CC1CCCCC1)C(=O)O; Carboxymethyl = O=C(O)C*; Orn = NCCC[C@H](N)C(=O)O; Dab = NCC[C@H](N)C(=O)O; Dap = NC[C@H](N)C(=O)O

Biological target: T1, human PD-1 / PD-L1-Ig binding on Jurkat cell line over-expressing human PD-1 (Jurkat-PD-1) (Homo sapiens, UniProt Q15116)
T1 construct: expressed in transfected cells; host or cells: Jurkat
T1 sequence (Q15116 25-288): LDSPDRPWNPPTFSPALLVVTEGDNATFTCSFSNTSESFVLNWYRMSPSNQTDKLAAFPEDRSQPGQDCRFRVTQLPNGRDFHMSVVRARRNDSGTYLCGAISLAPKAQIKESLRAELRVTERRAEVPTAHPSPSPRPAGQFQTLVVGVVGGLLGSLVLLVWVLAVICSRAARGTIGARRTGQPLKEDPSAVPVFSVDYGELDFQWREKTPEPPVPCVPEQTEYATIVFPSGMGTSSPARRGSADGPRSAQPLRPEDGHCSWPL
Assay: Jurkat-PD-1 Cell Binding High-Content Screening Assay (CBA)
Format: cell-based
Conditions: Jurkat-PD-1 cells, PE-labeled PD-L1-Ig 20 nM final; read-out: Jurkat HPD1_PDL1 IC50
Procedure, shortened: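 Binding of fluorescent PD-L1-Ig (phycoerythrin linked via the Ig tag, 20 nM final) to PD-1-overexpressing Jurkat cells was imaged after a 2 h, 37° C compound pretreatment and 1 hour ligand incubation.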

Compound | IC50
CC(C)C[C@H]1NC(=O)[C@H](CCCN)NC(=O)[C@H](CCC(=O)O)NC(=O)[C@H](Cc2ccc(-c3ccccc3)cc2)NC(=O)[C@H](C(C)C)NC(=O)[C@H](Cc2c[nH]c3ccccc23)NC(=O)[C@H](CC(=O)O)NC(=O)[C@H](Cc2ccc(N)cc2)NC(=O)[C@H](Cc2ccc(OCC(=O)O)cc2)NC(=O)CSC[C@@H](C(=O)N[C@@H](C)C(N)=O)NC(=O)[C@H]([C@@H](C)O)NC(=O)[C@H](C(C)C)NC(=O)[C@H](CC2CCCCC2)NC(=O)[C@H](CCN)NC1=O [Compound 2183] | 19.4 nM
CC(C)C[C@H]1NC(=O)[C@H](CCCN)NC(=O)[C@H](CCC(=O)O)NC(=O)[C@H](Cc2ccc(-c3ccccc3)cc2)NC(=O)[C@H](C(C)C)NC(=O)[C@H](Cc2c[nH]c3ccccc23)NC(=O)[C@H](CC(=O)O)NC(=O)[C@H](Cc2ccc(N)cc2)NC(=O)[C@H](Cc2ccncc2)NC(=O)CSC[C@@H](C(=O)N[C@@H](C)C(N)=O)NC(=O)[C@H]([C@@H](C)O)NC(=O)[C@H](C(C)C)NC(=O)[C@H](CC2CCCCC2)NC(=O)[C@H](CCN)NC1=O [Compound 2184] | 28.5 nM
CC(C)C[C@H]1NC(=O)[C@H](CCCN)NC(=O)[C@H](CCC(=O)O)NC(=O)[C@H](Cc2ccc(-c3ccccc3)cc2)NC(=O)[C@H](C(C)C)NC(=O)[C@H](Cc2c[nH]c3ccccc23)NC(=O)[C@H](CC(=O)O)NC(=O)[C@H](Cc2ccc(C#N)cc2)NC(=O)[C@H](CC(N)=O)NC(=O)CSC[C@@H](C(=O)N[C@@H](C)C(N)=O)NC(=O)[C@H]([C@@H](C)O)NC(=O)[C@H](C(C)C)NC(=O)[C@H](CC2CCCCC2)NC(=O)[C@H](CCN)NC1=O [Compound 2185] ({CH2CO}-N[Phe(4-CN)]DWV[Bip]E[Orn][dL][Dab][Cha]VTCA-NH2; thioether N-14) | 28.1 nM
CC(C)C[C@H]1NC(=O)[C@H](CCCN)NC(=O)[C@H](CCC(=O)O)NC(=O)[C@H](Cc2ccc(-c3ccccc3)cc2)NC(=O)[C@H](C(C)C)NC(=O)[C@H](Cc2c[nH]c3ccccc23)NC(=O)[C@H](CC(=O)O)NC(=O)[C@H](Cc2ccc(C#N)cc2)NC(=O)[C@H](Cc2ccccc2)NC(=O)CSC[C@@H](C(=O)N[C@@H](C)C(N)=O)NC(=O)[C@H]([C@@H](C)O)NC(=O)[C@H](C(C)C)NC(=O)[C@H](CC2CCCCC2)NC(=O)[C@H](CCN)NC1=O [Compound 2186] ({CH2CO}-F[Phe(4-CN)]DWV[Bip]E[Orn][dL][Dab][Cha]VTCA-NH2; thioether N-14) | 45.2 nM
CC(C)C[C@H]1NC(=O)[C@H](CCCN)NC(=O)[C@H](CCC(=O)O)NC(=O)[C@H](Cc2ccc(-c3ccccc3)cc2)NC(=O)[C@H](C(C)C)NC(=O)[C@H](Cc2c[nH]c3ccccc23)NC(=O)[C@H](CC(=O)O)NC(=O)[C@H](Cc2ccc(C#N)cc2)NC(=O)[C@H](CN)NC(=O)CSC[C@@H](C(=O)N[C@@H](C)C(N)=O)NC(=O)[C@H]([C@@H](C)O)NC(=O)[C@H](C(C)C)NC(=O)[C@H](CC2CCCCC2)NC(=O)[C@H](CCN)NC1=O [Compound 2187] | 13.2 nM
CC(C)C[C@H]1NC(=O)[C@H](CCCN)NC(=O)[C@H](CCC(=O)O)NC(=O)[C@H](Cc2ccc(-c3ccccc3)cc2)NC(=O)[C@H](C(C)C)NC(=O)[C@H](Cc2c[nH]c3ccccc23)NC(=O)[C@H](CC(=O)O)NC(=O)[C@H](Cc2ccc(C#N)cc2)NC(=O)[C@H](Cc2ccc(OCC(=O)O)cc2)NC(=O)CSC[C@@H](C(=O)N[C@@H](C)C(N)=O)NC(=O)[C@H]([C@@H](C)O)NC(=O)[C@H](C(C)C)NC(=O)[C@H](CC2CCCCC2)NC(=O)[C@H](CCN)NC1=O [Compound 2188] | 24.1 nM
CC(C)C[C@H]1NC(=O)[C@H](CCCN)NC(=O)[C@H](CCC(=O)O)NC(=O)[C@H](Cc2ccc(-c3ccccc3)cc2)NC(=O)[C@H](C(C)C)NC(=O)[C@H](Cc2c[nH]c3ccccc23)NC(=O)[C@H](CC(=O)O)NC(=O)[C@H](Cc2ccc(C#N)cc2)NC(=O)[C@H](Cc2ccncc2)NC(=O)CSC[C@@H](C(=O)N[C@@H](C)C(N)=O)NC(=O)[C@H]([C@@H](C)O)NC(=O)[C@H](C(C)C)NC(=O)[C@H](CC2CCCCC2)NC(=O)[C@H](CCN)NC1=O [Compound 2189] | 32.2 nM
CC(C)C[C@H]1NC(=O)[C@H](CCCN)NC(=O)[C@H](CCC(=O)O)NC(=O)[C@H](Cc2ccc(-c3ccccc3)cc2)NC(=O)[C@H](C(C)C)NC(=O)[C@H](Cc2c[nH]c3ccccc23)NC(=O)[C@H](CC(=O)O)NC(=O)[C@H](Cc2cccs2)NC(=O)[C@H](CC(N)=O)NC(=O)CSC[C@@H](C(=O)N[C@@H](C)C(N)=O)NC(=O)[C@H]([C@@H](C)O)NC(=O)[C@H](C(C)C)NC(=O)[C@H](CC2CCCCC2)NC(=O)[C@H](CCN)NC1=O [Compound 2190] ({CH2CO}-N[2Thi]DWV[Bip]E[Orn][dL][Dab][Cha]VTCA-NH2; thioether N-14) | 15.3 nM
CC(C)C[C@H]1NC(=O)[C@H](CCCN)NC(=O)[C@H](CCC(=O)O)NC(=O)[C@H](Cc2ccc(-c3ccccc3)cc2)NC(=O)[C@H](C(C)C)NC(=O)[C@H](Cc2c[nH]c3ccccc23)NC(=O)[C@H](CC(=O)O)NC(=O)[C@H](Cc2cccs2)NC(=O)[C@H](Cc2ccccc2)NC(=O)CSC[C@@H](C(=O)N[C@@H](C)C(N)=O)NC(=O)[C@H]([C@@H](C)O)NC(=O)[C@H](C(C)C)NC(=O)[C@H](CC2CCCCC2)NC(=O)[C@H](CCN)NC1=O [Compound 2191] ({CH2CO}-F[2Thi]DWV[Bip]E[Orn][dL][Dab][Cha]VTCA-NH2; thioether N-14) | 59.5 nM
CC(C)C[C@H]1NC(=O)[C@H](CCCN)NC(=O)[C@H](CCC(=O)O)NC(=O)[C@H](Cc2ccc(-c3ccccc3)cc2)NC(=O)[C@H](C(C)C)NC(=O)[C@H](Cc2c[nH]c3ccccc23)NC(=O)[C@H](CC(=O)O)NC(=O)[C@H](Cc2cccs2)NC(=O)[C@H](CN)NC(=O)CSC[C@@H](C(=O)N[C@@H](C)C(N)=O)NC(=O)[C@H]([C@@H](C)O)NC(=O)[C@H](C(C)C)NC(=O)[C@H](CC2CCCCC2)NC(=O)[C@H](CCN)NC1=O [Compound 2192] ({CH2CO}-[Dap][2Thi]DWV[Bip]E[Orn][dL][Dab][Cha]VTCA-NH2; thioether N-14) | 18.4 nM
CC(C)C[C@H]1NC(=O)[C@H](CCCN)NC(=O)[C@H](CCC(=O)O)NC(=O)[C@H](Cc2ccc(-c3ccccc3)cc2)NC(=O)[C@H](C(C)C)NC(=O)[C@H](Cc2c[nH]c3ccccc23)NC(=O)[C@H](CC(=O)O)NC(=O)[C@H](Cc2cccs2)NC(=O)[C@H](Cc2ccc(OCC(=O)O)cc2)NC(=O)CSC[C@@H](C(=O)N[C@@H](C)C(N)=O)NC(=O)[C@H]([C@@H](C)O)NC(=O)[C@H](C(C)C)NC(=O)[C@H](CC2CCCCC2)NC(=O)[C@H](CCN)NC1=O [Compound 2193] | 23.4 nM
CC(C)C[C@H]1NC(=O)[C@H](CCCN)NC(=O)[C@H](CCC(=O)O)NC(=O)[C@H](Cc2ccc(-c3ccccc3)cc2)NC(=O)[C@H](C(C)C)NC(=O)[C@H](Cc2c[nH]c3ccccc23)NC(=O)[C@H](CC(=O)O)NC(=O)[C@H](Cc2cccs2)NC(=O)[C@H](Cc2ccncc2)NC(=O)CSC[C@@H](C(=O)N[C@@H](C)C(N)=O)NC(=O)[C@H]([C@@H](C)O)NC(=O)[C@H](C(C)C)NC(=O)[C@H](CC2CCCCC2)NC(=O)[C@H](CCN)NC1=O [Compound 2194] ({CH2CO}-[4Pal][2Thi]DWV[Bip]E[Orn][dL][Dab][Cha]VTCA-NH2; thioether N-14) | 16.5 nM
CC(C)C[C@H]1NC(=O)[C@H](CCCN)NC(=O)[C@H](CCC(=O)O)NC(=O)[C@H](Cc2ccc(-c3ccccc3)cc2)NC(=O)[C@H](C(C)C)NC(=O)[C@H](Cc2c[nH]c3ccccc23)NC(=O)[C@H](CC(=O)O)NC(=O)[C@H](Cc2ccncc2)NC(=O)[C@H](CC(N)=O)NC(=O)CSC[C@@H](C(=O)N[C@@H](C)C(N)=O)NC(=O)[C@H]([C@@H](C)O)NC(=O)[C@H](C(C)C)NC(=O)[C@H](CC2CCCCC2)NC(=O)[C@H](CCN)NC1=O [Compound 2195] ({CH2CO}-N[4Pal]DWV[Bip]E[Orn][dL][Dab][Cha]VTCA-NH2; thioether N-14) | 22.8 nM
CC(C)C[C@H]1NC(=O)[C@H](CCCN)NC(=O)[C@H](CCC(=O)O)NC(=O)[C@H](Cc2ccc(-c3ccccc3)cc2)NC(=O)[C@H](C(C)C)NC(=O)[C@H](Cc2c[nH]c3ccccc23)NC(=O)[C@H](CC(=O)O)NC(=O)[C@H](Cc2ccncc2)NC(=O)[C@H](Cc2ccccc2)NC(=O)CSC[C@@H](C(=O)N[C@@H](C)C(N)=O)NC(=O)[C@H]([C@@H](C)O)NC(=O)[C@H](C(C)C)NC(=O)[C@H](CC2CCCCC2)NC(=O)[C@H](CCN)NC1=O [Compound 2196] ({CH2CO}-F[4Pal]DWV[Bip]E[Orn][dL][Dab][Cha]VTCA-NH2; thioether N-14) | 11.6 nM
CC(C)C[C@H]1NC(=O)[C@H](CCCN)NC(=O)[C@H](CCC(=O)O)NC(=O)[C@H](Cc2ccc(-c3ccccc3)cc2)NC(=O)[C@H](C(C)C)NC(=O)[C@H](Cc2c[nH]c3ccccc23)NC(=O)[C@H](CC(=O)O)NC(=O)[C@H](Cc2ccncc2)NC(=O)[C@H](Cc2ccncc2)NC(=O)CSC[C@@H](C(=O)N[C@@H](C)C(N)=O)NC(=O)[C@H]([C@@H](C)O)NC(=O)[C@H](C(C)C)NC(=O)[C@H](CC2CCCCC2)NC(=O)[C@H](CCN)NC1=O [Compound 2197] ({CH2CO}-[4Pal][4Pal]DWV[Bip]E[Orn][dL][Dab][Cha]VTCA-NH2; thioether N-14) | 8.2 nM
CC(C)C[C@H]1NC(=O)[C@H](CCCN)NC(=O)[C@H](CCC(=O)O)NC(=O)[C@H](Cc2ccc(-c3ccccc3)cc2)NC(=O)[C@H](C(C)C)NC(=O)[C@H](Cc2c[nH]c3ccccc23)NC(=O)[C@H](CCC(=O)O)NC(=O)[C@H](Cc2ccc(OCC(=O)O)cc2)NC(=O)[C@H](CN)NC(=O)CSC[C@@H](C(=O)N[C@@H](C)C(N)=O)NC(=O)[C@H]([C@@H](C)O)NC(=O)[C@H](C(C)C)NC(=O)[C@H](CC2CCCCC2)NC(=O)[C@H](CCN)NC1=O [Compound 2198] ({CH2CO}-[Dap]Y(Carboxymethyl)EWV[Bip]E[Orn][dL][Dab][Cha]VTCA-NH2; thioether N-14) | 803 nM
